The values that follow are results of earlier work, collected in patent US11859018B2, “Peptoid-based chelating ligands for selective metal chelation” (TRIAD National Security, LLC., priority 2018, dated 2024).

For `O=C(N[C@H]1COC(=O)[C@@H](NC(=O)c2cccc(O)c2O)COC(=O)[C@@H](NC(=O)c2cccc(O)c2O)COC1=O)c1cccc(O)c1O` [enterobactin], the “stability constant for the Fe(III) complex, Log(Kβ)” value is recorded as 49.
